From US20240246984A1, “HETEROCYCLIC JAK INHIBITOR” (BEIJING INNOCARE PHARMA TECH CO., LTD., priority 2020, published 2024)

Experiments:
[1] = tested on: IL-12-induced IFN-γ secretion in NK92 cells; experiment: Inhibition of IL-12-induced IFN-γ secretion in NK92 cells (ELISA); assay type: cell-based; conditions: Homo sapiens, IL-12 stimulation, 24 hours, read-out: IC50 (NK92IL12/IFN-γ)
Procedure: The effect of the compounds of the present invention on IFN-γ secretion in IL-12-induced NK92 cells was evaluated by an enzyme-linked immunosorbent assay (ELISA).
The assay principle was generally described below: IL-12R was mainly expressed in activated T-cells, NK cells (NK92 was an NK cell line), DC cells, and B-cells. When binding to IL-12, it activated the JAK2/TYK2 signal transduction pathway within NK cells and activated T lymphocytes, thereby inducing secretion of IFN-γ.
The compound was dissolved to 2.5 mM in DMSO, followed by a serial 4-fold dilution with DMSO to a minimum concentration of 0.31 μM. Each concentration was further diluted 50-fold with an FBS-free MEMα medium (Thermofisher. 12561-056).
NK92 cells (Nanjing Cobioer, CBP60980) were cultured in a complete MEMα medium containing 12.5% FBS (Ausbian, VS500T), 12.5% horse serum (Thermofisher, 16050-122), 0.02 mM folic acid (Sigma, F8758), 0.2 mM inositol (Sigma, 17850), 0.55 mM β-mercaptoethanol (Thermofish, 21985-023), 200 U/mL IL-2 (R&D Systems, 202-1L), and 100 U/mL penicillin-streptomycin mixed liquor (ThermoFisher, 15140122). When covering 80-90% of the culture container surface, the cells were dispersed and plated on a 96-well plate (ThermoFisher, 167425) with 100,000 cells per well (80 μL of the complete MEMα medium without IL-2). The 96-well plate was then incubated overnight in a 37° C., 5% CO2 incubator.
After overnight incubation, 10 μL of the compound and 10 μL of 50 ng/ml IL-12 (R &D Systems, 219-1L) were added to each well and mixed gently, and the 96-well plate was incubated in the 37° C., 5% CO2 incubator for additional 24 hours. The plate was centrifuged at 800 rpm for 10 minutes at room temperature and 50 μL of the supernatant from each well was transferred to another 96-well plate (Sigma, CLS3695) coated with anti-IFN-γ antibody. The amount of IFN-γ secretion was detected following the instruction from the Human IFN-γ DuoSet ELISA assay kit (R & D Systems, DY285B). In this assay, the group in which IL-12 and the test compound were replaced with the MEMα medium was the non-stimulated control group (100% inhibition), and the group with IL-12 and 0.2% DMSO was the stimulated control group (0% inhibition). The compound inhibition curve was plotted using XLfit software and the IC50 of its inhibition was calculated.

[2] = biological target: human recombinant TYK2 protein (Homo sapiens, UniProt P29597); experiment: TYK2 activity inhibition assay (HTRF kinase detection); assay type: biochemical; conditions: 11.25 μM ATP substrate solution
Procedure: The effect of the compounds of the present invention on the activity of TYK2 was assessed by using an in vitro kinase detection assay.
The enzymatic activity of TYK2 was assessed by detecting the substrate phosphorylation level in a kinase reaction with a homogeneous time-resolved fluorescence (HTRF) kinase detection kit (Cisbio, 62TK0PEC). A reaction buffer contained an enzyme buffer (1×), 5 mM MgCl2, 1 mM DTT and 0.01% Brij35 from the kit; a human recombinant TYK2 protein (Carna Biosciences, 08-147) was diluted to a kinase reaction solution of 0.25 ng/μL with the reaction buffer; a substrate reaction solution contained 11.25 μM ATP and a biotin-labeled tyrosine kinase substrate diluted to 0.5 μM with the reaction buffer; a detection buffer contained 0.1 ng/μL Eu^3+ labeled cage antibody (Cisbio, 61T66KLB) and 25 nM streptavidin-labeled XL665 (Cisbio, 610SAXLB) in the reaction buffer; the compound was dissolved to 10 μM in DMSO, followed by a serial 4-fold dilution with DMSO to a minimum concentration of 0.061 nM. Each concentration was further diluted 40-fold with the reaction buffer. To a 384-well assay plate (Corning, 3674) were added 4 μL of the compound solutions having a series of concentrations and 2 μL of kinase reaction solutions. After being mixed evenly, the mixtures were incubated at room temperature for 15 minutes, and then 4 μL of the substrate reaction solutions were added. The reaction mixtures were incubated at room temperature for 40 minutes. Then the reaction mixtures were added with 10 μL of detection solutions, mixed evenly, and allowed to stand at room temperature for 30 minutes. An Envision plate reader (Perkin Elmer) was then used to measure the progress of the reaction at wavelengths of 620 nm and 665 nm. The signal value (absorbance at 665 nm/absorbance at 620 nm) was positively correlated with the degree of substrate phosphorylation, therefore the kinase activity of TYK2 was detected. In this assay, the group without TYK2 kinase protein was the 100% inhibition group, and the group with TYK2 kinase protein but without the test compound was the 0% inhibition group. The compound inhibition curve was plotted using XLfit software and the IC50 of its inhibition was calculated.

[3] = biological target: human recombinant JAK2 protein (Homo sapiens, UniProt O60674); experiment: JAK2 activity inhibition assay (HTRF kinase detection); assay type: biochemical; conditions: 2.5 μM ATP substrate solution
Procedure: The effect of the compounds of the present invention on the activity of JAK2 was assessed by using an in vitro kinase detection assay.
The enzymatic activity of JAK2 was assessed by detecting the substrate phosphorylation level in a kinase reaction with a homogeneous time-resolved fluorescence (HTRF) kinase detection kit (Cisbio, 62TK0PEC). A reaction buffer contained an enzyme buffer (1×), 5 mM MgCl2, 1 mM DTT and 0.01% Brij35 from the kit; a human recombinant JAK2 protein (Carna Biosciences, 08-045) was diluted to a kinase reaction solution of 0.15 ng/μL with the reaction buffer; a substrate reaction solution contained 2.5 μM ATP and a biotin-labeled tyrosine kinase substrate diluted to 0.25 μM with the reaction buffer; a detection buffer contained 0.1 ng/μL Eu^3+ labeled cage antibody (Cisbio, 61T66KLB) and 12.5 nM streptavidin-labeled XL665 (Cisbio, 610SAXLB) in the reaction buffer; the compound was dissolved to 10 μM in DMSO, followed by a serial 4-fold dilution with DMSO to a minimum concentration of 0.061 nM. Each concentration was further diluted 40-fold with the reaction buffer. To a 384-well assay plate (Corning, 3674) were added 4 μL of the compound solutions having a series of concentrations and 2 μL of JAK2 kinase reaction solutions. After being mixed evenly, the mixtures were incubated at room temperature for 15 minutes, and then 4 μL of the substrate reaction solutions were added. The reaction mixtures were incubated at room temperature for 30 minutes. Then the reaction mixtures were added with 10 μL of detection solutions, mixed evenly, and allowed to stand at room temperature for 30 minutes. An Envision plate reader (Perkin Elmer) was then used to measure the progress of the reaction at wavelengths of 620 nm and 665 nm. The signal value (absorbance at 665 nm/absorbance at 620 nm) was positively correlated with the degree of substrate phosphorylation, therefore the kinase activity of JAK2 was detected. In this assay, the group without JAK2 kinase protein was the 100% inhibition group, and the group with JAK2 kinase protein but without the test compound was the 0% inhibition group. The compound inhibition curve was plotted using XLfit software and the IC50 of its inhibition was calculated.

## O=C1NCCn2c(-c3c(F)cccc3F)nc(Nc3ccc(C(=O)N4CCOCC4)cc3)c21 [Compound 2, 3-(2,6-difluorophenyl)-1-((4-(morpholine-4-carbonyl)phenyl)amino)-6,7-dihydroimidazo[1,5-a]pyrazin-8(5H)-one]
[1]
  IC50: 95 nM

## O=C(c1ccc(Nc2nc(-c3c(F)cccc3Cl)n3cc[nH]c(=O)c23)cc1)N1CCOCC1 [Compound 3, 3-(2-chloro-6-fluorophenyl)-1-((4-(morpholine-4-carbonyl)phenyl)amino)imidazo[1,5-a]pyrazin-8(7H)-one]
[1]
  IC50: 66 nM
[2]
  IC50: 0.1 nM
[3]
  IC50: 0.4 nM

## Cn1cc(Nc2nc(-c3c(F)cccc3F)n3cc[nH]c(=O)c23)cn1 [Compound 4, 3-(2,6-difluorophenyl)-1-((1-methyl-1H-pyrazol-4-yl)amino)imidazo[1,5-a]pyrazin-8(7H)-one]
[1]
  IC50: 175 nM
[2]
  IC50: 0.8 nM
[3]
  IC50: 2 nM

## Cn1cc(Nc2nc(-c3c(F)cccc3F)n3c2C(=O)NCC3)cn1 [Compound 5, 3-(2,6-difluorophenyl)-1-((1-methyl-1H-pyrazol-4-yl)amino)-6,7-dihydroimidazo[1,5-a]pyrazin-8(5H)-one]
[1]
  IC50: 1310 nM
[2]
  IC50: 4.8 nM
[3]
  IC50: 27 nM

## O=c1[nH]ccn2c(-c3c(F)cccc3F)nc(Nc3ccc(N4CCOCC4)cc3)c12 [Compound 6, 3-(2,6-difluorophenyl)-1-((4-morpholinophenyl)amino)imidazo[1,5-a]pyrazin-8(7H)-one]
[1]
  IC50: 198 nM
[2]
  IC50: 0.3 nM
[3]
  IC50: 5.3 nM

## Cn1ccc(Nc2nc(-c3c(F)cccc3F)n3cc[nH]c(=O)c23)n1 [Compound 7, 3-(2,6-difluorophenyl)-1-((1-methyl-1H-pyrazol-3-yl)amino)imidazo[1,5-a]pyrazin-8(7H)-one]
[2]
  IC50: 20 nM
[3]
  IC50: 62 nM

## Cn1ccc(Nc2nc(-c3c(F)cccc3F)n3c2C(=O)NCC3)n1 [Compound 8, 3-(2,6-difluorophenyl)-1-((1-methyl-1H-pyrazol-3-yl)amino)-6,7-dihydroimidazo[1,5-a]pyrazin-8(5H)-one]
[2]
  IC50: 220 nM

## O=c1[nH]ccn2c(-c3c(F)cccc3F)nc(Nc3ccc(N4CCOCC4)cn3)c12 [Compound 9, 3-(2,6-difluorophenyl)-1-((5-morpholinopyridin-2-yl)amino)imidazo[1,5-a]pyrazin-8(7H)-one]
[2]
  IC50: 7 nM
[3]
  IC50: 13 nM

## O=C1NCCn2c(-c3c(F)cccc3F)nc(Nc3ccc(N4CCOCC4)cc3)c21 [Compound 10, 3-(2,6-difluorophenyl)-1-((4-morpholinophenyl)amino)-6,7-dihydroimidazo[1,5-a]pyrazin-8(5H)-one]
[1]
  IC50: 122 nM
[2]
  IC50: 0.4 nM
[3]
  IC50: 4.4 nM

## CS(=O)(=O)c1ccc(Nc2nc(-c3c(F)cccc3F)n3cc[nH]c(=O)c23)cc1 [Compound 11, 3-(2,6-difluorophenyl)-1-((4-(methylsulfonyl)phenyl)amino)imidazo[1,5-a]pyrazin-8(7H)-one]
[1]
  IC50: 242 nM
[2]
  IC50: 4 nM
[3]
  IC50: 1.4 nM

## CC(=O)N1CCC(c2nc(Nc3ccc(C(=O)N4CCOCC4)cc3)c3c(=O)[nH]ccn23)CC1 [Compound 19, 3-(1-acetylpiperidin-4-yl)-1-((4-(morpholine-4-carbonyl)phenyl)amino)imidazo[1,5-a]pyrazin-8(7H)-one]
[2]
  IC50: 23 nM
[3]
  IC50: 14 nM

## O=C(c1ccc(Nc2nc(C3CCNCC3)n3cc[nH]c(=O)c23)cc1)N1CCOCC1 [Compound 20, 1-((4-(morpholine-4-carbonyl)phenyl)amino)-3-(piperidin-4-yl)imidazo[1,5-a]pyrazin-8(7H)-one]
[2]
  IC50: 37 nM
[3]
  IC50: 53 nM

## O=C(c1ccc(Nc2nc(C3CCN(C4CC4)CC3)n3cc[nH]c(=O)c23)cc1)N1CCOCC1 [Compound 21, 3-(1-cyclopropylpiperidin-4-yl)-1-((4-(morpholine-4-carbonyl)phenyl)amino)imidazo[1,5-a]pyrazin-8(7H)-one]
[2]
  IC50: 12 nM
[3]
  IC50: 12 nM

## O=C(c1cccc(Nc2nc(-c3c(F)cccc3F)n3cc[nH]c(=O)c23)c1)N1CCOCC1 [Compound 22, 3-(2,6-difluorophenyl)-1-((3-(morpholine-4-carbonyl)phenyl)amino)imidazo[1,5-a]pyrazin-8(7H)-one]
[2]
  IC50: 3.3 nM
[3]
  IC50: 3.9 nM

## O=C1NCCn2c(-c3c(F)cccc3F)nc(Nc3cccc(C(=O)N4CCOCC4)c3)c21 [Compound 23, 3-(2,6-difluorophenyl)-1-((3-(morpholine-4-carbonyl)phenyl)amino)-6,7-dihydroimidazo[1,5-a]pyrazin-8(5H)-one]
[2]
  IC50: 50 nM
[3]
  IC50: 29 nM

## O=C1NCCn2c(-c3c(F)cccc3F)nc(Nc3cnn(CC(=O)N4CCOCC4)c3)c21 [Compound 24, 3-(2,6-difluorophenyl)-1-((1-(2-morpholino-2-oxoethyl)-1H-pyrazol-4-yl)amino)-6,7-dihydroimidazo[1,5-a]pyrazin-8(5H)-one]
[2]
  IC50: 3.2 nM
[3]
  IC50: 42 nM

## CN1CCN(C(=O)Cn2cc(Nc3nc(-c4c(F)cccc4F)n4c3C(=O)NCC4)cn2)CC1 [Compound 25, 3-(2,6-difluorophenyl)-1-((1-(2-(4-methylpiperazin-1-yl)-2-oxoethyl)-1H-pyrazol-4-yl)amino)-6,7-dihydroimidazo[1,5-a]pyrazin-8(5H)-one]
[2]
  IC50: 5.1 nM
[3]
  IC50: 39 nM
